Patent US20120251551A1, “Substituted (Heteroarylmethyl)thiohydantoins” (BAYER PHARMA AKTIENGESELLSCHAFT, priority 2009, published 2012)
Changes are numbered by the printed parent chain.

Key:
[1] = molecular target: T1, human androgen receptor W741L mutant (Homo sapiens, UniProt P10275, W742L); assay: Cell-based transactivation assay for human androgen receptor mutant W741L
T1 construct: expressed in transfected cells; host or cells: PC-3 cells, transient transfection with a pSG5-derived plasmid
T1 sequence (P10275 1-920 W742L): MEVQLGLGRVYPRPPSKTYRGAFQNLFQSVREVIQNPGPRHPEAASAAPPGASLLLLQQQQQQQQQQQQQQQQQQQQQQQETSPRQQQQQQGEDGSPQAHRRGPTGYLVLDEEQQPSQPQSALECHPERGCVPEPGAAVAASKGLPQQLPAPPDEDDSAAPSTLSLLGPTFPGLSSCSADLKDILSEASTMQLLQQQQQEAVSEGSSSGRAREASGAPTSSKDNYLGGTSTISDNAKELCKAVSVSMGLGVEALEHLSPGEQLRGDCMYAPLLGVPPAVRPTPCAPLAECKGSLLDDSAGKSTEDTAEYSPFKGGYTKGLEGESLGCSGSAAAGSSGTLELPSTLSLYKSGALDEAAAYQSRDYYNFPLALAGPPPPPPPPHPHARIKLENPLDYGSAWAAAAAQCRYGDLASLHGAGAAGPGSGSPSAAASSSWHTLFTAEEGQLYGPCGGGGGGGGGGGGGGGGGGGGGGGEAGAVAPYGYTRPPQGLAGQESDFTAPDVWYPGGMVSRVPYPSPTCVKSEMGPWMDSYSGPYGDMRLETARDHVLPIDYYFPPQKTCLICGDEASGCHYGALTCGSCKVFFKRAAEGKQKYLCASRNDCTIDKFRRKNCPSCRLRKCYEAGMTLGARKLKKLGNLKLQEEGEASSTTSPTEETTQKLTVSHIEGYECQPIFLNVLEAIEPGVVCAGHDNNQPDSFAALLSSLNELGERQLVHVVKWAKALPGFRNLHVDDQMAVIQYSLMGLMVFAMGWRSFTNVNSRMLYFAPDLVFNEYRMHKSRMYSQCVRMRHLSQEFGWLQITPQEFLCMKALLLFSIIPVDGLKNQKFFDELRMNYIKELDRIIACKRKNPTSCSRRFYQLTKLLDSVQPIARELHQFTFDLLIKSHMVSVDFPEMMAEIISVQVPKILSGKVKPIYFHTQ
Description: (§1) Cell-Based Transactivation Assay for Human Androgen Receptor Mutant W741L or W741C
(§2) PC-3 cells (Kaighn et al., Invest. Urol. 17:16-23, 1979) were grown in 5% charcoal-stripped medium and seeded at a concentration of 10000 cells per well in a 96-well plate. They were transiently transfected with a pSG5-derived plasmid (#216201 from Stratagene, La Jolla, Calif., USA) coding for the human androgen receptor W741L or W741C mutant Mara et al., Cancer Research, 63: 149-153, 2003) and an MMTV-Luciferase reporter plasmid based on pGL4.14 14 (#E6691, Promega Corporation, Madison, Wis., USA). The compound to be tested was added at a concentration range varying from 1×10^−9 to 1×10 M together with 1×10^−10 R1881. After 24 h incubation at 37° C. in a 5% CO2 atmosphere, 100 μl of Steady Glo Lysis and Detection reagent (Steady Glo Luciferase assay system E2550 from Promega Corporation. Madison, Wis., USA) were added. Antagonistic activity was determined by measuring Luciferase activity in a Victor 3 Luminometer (PerkinElmer, Waltham, Mass., USA) using the Steady Glo Luciferase Assay (E2550, Promega). IC50 values were calculated for anti-androgenic activity.

[2] = molecular target: T2, human androgen receptor W741C mutant (Homo sapiens, UniProt P10275, W742C); assay: Cell-based transactivation assay for human androgen receptor mutant W741C
T2 construct: expressed in transfected cells; host or cells: PC-3 cells, transient transfection with a pSG5-derived plasmid
T2 sequence (P10275 1-920 W742C): T1 sequence (P10275 1-920 W742L) with L742C
Description: as §1, §2

LNCaP cells = assay: Proliferation assay with LNCaP cells; format: cell-based; settings: Homo sapiens, 168 h, R1881 (1×10^−10) stimulated growth, day 7, read-out: inhibition IC50 (LNCaP)
Procedure, shortened: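 LNCaP cells were grown in phenol red-free RPMI with 5% charcoal-stripped serum and, after 3 days, treated with R1881 (1×10^−10) plus compound. Cell number was measured by Alamar Blue fluorescence at day 0 and day 7. R1881-only signal at day 7 defined stimulated growth, and day-7 signal without R1881 defined basal.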

SMILES | IC50 [1] | IC50 [2] | IC50 (LNCaP cells)
CN1C(=S)N(c2ccc(C#N)c(C(F)(F)F)c2)C(=O)C1(C)C [2-(Trifluoromethyl)-4-(3,4,4-trimethyl-5-oxo-2-thioxoimidazolidin-1-yl)benzonitrile, reference compound] | 159 nM | 21.2 nM | 
CC1(C)C(=O)N(c2ccc(C#N)c(C(F)(F)F)c2)C(=S)N1CCCCO [4-[3-(4-Hydroxybutyl)-4,4-dimethyl-5-oxo-2-thioxoimidazolidin-1-yl]-2-(trifluoromethyl)benzonitrile, reference compound] | 89.7 nM | 27.1 nM | 
CC1(C)C(=O)N(c2ccc(C#N)c(C(F)(F)F)c2)C(=S)N1Cc1ccc(F)cc1 [Comparative data^4] | > 1000 nM | > 1000 nM | 
CC1(C)C(=O)N(c2ccc(C#N)c(C(F)(F)F)c2)C(=S)N1Cc1ccccc1 [Comparative data^4] | 166 nM | 142 nM | 
CC1(C)C(=O)N(c2ccc(C#N)c(C(F)(F)F)c2)C(=S)N1Cc1ccc(-n2ccnc2)nc1 [Example 1, 4-(3-{[6-(1H-Imidazol-1-yl)pyridin-3-yl]methyl}-4,4-dimethyl-5-oxo-2-thioxoimidazolidin-1-yl)-2-(trifluoromethyl)benzonitrile] | 173 nM | 216 nM | 59 nM
CC1(C)C(=O)N(c2ccc(C#N)c(C(F)(F)F)c2)C(=S)N1Cc1ccc(C(F)(F)F)nc1 [Example 2, 4-(4,4-Dimethyl-5-oxo-2-thioxo-3-{[6-(trifluoromethyl)pyridin-3-yl]methyl}imidazolidin-1-yl)-2-(trifluoromethyl)benzonitrile] | 86.7 nM |  | 314 nM
CC1(C)C(=O)N(c2ccc(C#N)c(C(F)(F)F)c2)C(=S)N1Cc1ccc(N2CCOCC2)nc1 [Example 4, 4-(4,4-Dimethyl-3-{[6-(morpholin-4-yl)pyridin-3-yl]methyl}-5-oxo-2-thioxoimidazolidin-1-yl)-2-(trifluoromethyl)benzonitrile] | 89.2 nM | 270 nM | 117 nM
CC1(C)C(=O)N(c2ccc(C#N)c(C(F)(F)F)c2)C(=S)N1Cc1ccc(N2CCS(=N)(=O)CC2)nc1 [Example 9, 4-(3-{[6-(1-Imino-1-oxido-1λ^6-thiomorpholin-4-yl)pyridin-3-yl]methyl}-4,4-dimethyl-5-oxo-2-thioxoimidazolidin-1-yl)-2-(trifluoromethyl)benzonitrile] | 275 nM |  | 303 nM
CC(C)(O)COc1ccc(CN2C(=S)N(c3ccc(C#N)c(C(F)(F)F)c3)C(=O)C2(C)C)cn1 [Example 10, 4-(3-{[6-(2-Hydroxy-2-methylpropoxy)pyridin-3-yl]methyl}-4,4-dimethyl-5-oxo-2-thioxoimidazolidin-1-yl)-2-(trifluoromethyl)benzonitrile] | 285 nM | 115 nM | 283 nM
Cc1nc(C(F)(F)F)ccc1CN1C(=S)N(c2ccc(C#N)c(C(F)(F)F)c2)C(=O)C1(C)C [Example 13, 4-(4,4-Dimethyl-3-{[2-methyl-6-(trifluoromethyl)pyridin-3-yl]methyl}-5-oxo-2-thioxoimidazolidin-1-yl)-2-(trifluoromethyl)benzonitrile] | 93.7 nM |  | 124 nM
